These molecules were tested on N-acetylhexosamine-dehydrogenase (N-AHDH) (assay: Action and substrate specificity of the enzyme). Details: in the presence of NAD+.
Assay type: biochemical, Pseudomonas sp. No. 53
Method: As shown in the following reaction scheme, this enzyme oxidizes N-acetylglucosamine or N-acetylgalactosamine to N-acetylglucosaminolactoneor N-acetylgalactosaminolactone in the presence of NAD^+ and, at the same time, reduces the NAD^+ to NADH. [drawing 1]
(§1) To 1.8 ml of 0.1 M glycine-sodium hydroxide buffer (pH 9.5) is added 0.1 ml of 60 mM […] solution. After keeping the mixture at 37° C. for 10 minutes, 10 microliters of enzyme solution is added, and subsequently 0.1 ml of 0.3M N-acetylglucosamine solution is mixed to start the reaction. The reaction mixture is immediately transferred into an absorbance measurement cell (1 cm path) kept at 37° C., and absorbance is measured at intervals of one minute at a wavelength of 340 nm over a period of 5 minutes or, if desired, over a longer period of time. A quantity of enzyme capable of forming one micromole of NADH per one minute is taken as "one unit".

Row | SMILES | Action of the enzyme upon the sugar (substrate specificity)
1 | CC(=O)N[C@H]1C(O)O[C@H](CO)[C@@H](O)[C@@H]1O (stereo partly shown) [N-acetylglucosamine] | oxidizes
2 | CC(=O)N[C@H]1C(O)O[C@H](CO)[C@H](O)[C@@H]1O (stereo partly shown) [N-acetylgalactosamine] | oxidizes
3 | CC(=O)N[C@@H]1C(O)O[C@H](CO)[C@@H](O)[C@@H]1O (stereo partly shown) [N-acetylmannosamine] | only a slight action
4 | CC(=O)N[C@H]1[C@H](O[C@H]2[C@H](O)[C@@H](NC(C)=O)C(O)O[C@@H]2CO)O[C@H](CO)[C@@H](O)[C@@H]1O (stereo partly shown) [N,N'-diacetylchitobiose] | no action at all or hardly exercises an action

Same assay, conditions: in the presence of NAD+; listed as acetylchitobiose

Row | SMILES | Action of the enzyme upon the sugar (substrate specificity)
5 | CC(=O)N[C@H]1[C@H](O[C@H]2[C@H](O)[C@@H](NC(C)=O)C(O)O[C@@H]2CO)O[C@H](CO)[C@@H](O)[C@@H]1O (stereo partly shown) [N,N'-diacetylchitobiose] | does not act

Each molecule was assayed on N-acetylhexosamine-dehydrogenase (N-AHDH) (assay: Influence of inhibitor on enzyme activity). Details: not given.
Assay type: biochemical, Pseudomonas sp. No. 53
Method: In the table presented above, enzyme activity was measured in a solution containing 2 mM of metallic ion or inhibitor. There is known no substance particularly contributing to activation and stabilization.
as §1

Row | SMILES | Residual activity
6 | Oc1cccc2cccnc12 [8-Hydroxyquinoline] | 110

Same assay, conditions: solution containing 2 mM of metallic ion or inhibitor

Row | SMILES | Residual activity
7 | CCCCCCCCCCCCOS(=O)(=O)O [SDS] | 62%
8 | c1cnc2c(c1)ccc1cccnc12 [o-Phenanthroline] | 104%
9 | O=S(=O)([O-])[O-].[Mn+2] [MnSO4] | 96%
10 | [N-]=[N+]=[N-].[Na+] [NaN3] | 89%
11 | c1ccc(-c2ccccn2)nc1 [α, α'-Dipyridyl] | 107%
12 | O=S(=O)([O-])[O-].[Zn+2] [ZnSO4] | 95%
13 | O=C(O)CN(CCN(CC(=O)O)CC(=O)O)CC(=O)O [EDTA] | 101%
14 | O=S(=O)([O-])[O-].[Cd+2] [CdSO4] | 92%
15 | [Ca+2].[Cl-].[Cl-] [CaCl2] | 95%
16 | [Cl][Hg][Cl] [HgCl2] | 35%
17 | NC(=O)CI [Iodoacetamide] | 104%
18 | O=C(O)c1cc[c]([Hg][Cl])cc1 [PCMB] | 97%
19 | O=S(=O)([O-])[O-].[Cu+2] [CuSO4] | 94%

Reference: patent US5068190A, “N-acetylhexosamine-dehydrogenase, process for producing same, method for the quantitative analysis of N-acetylglucosamine or N-acetylgalactosamine using same and kit for use in the quantitative analysis” (Noda Institute for Scientific Research, priority 1988, dated 1991)
